For experiment [1], the system named is mouse IOP. Description: Mouse IOP after topical application, non-invasive pneumotonometry. The class given is in vivo, Black Swiss mice. The note with it: for Δ(IOP) Pneumotonometer: topical droplets 200 nM (1% DMSO), 30 min. How it is done:
(§1) The test animals were black Swiss outbred mice of mixed sex, 7-9 weeks old and 25-30 g in weight, obtained from Taconic Inc. (Germantown, N.Y.), and maintained under 12:12-h light/dark illumination cycle and allowed unrestricted access to food and water. Mice were anesthetized with intraperitoneal ketamine ([…]) supplemented by topical proparacaine HCl 0.5% (Allergan, Bausch & Lomb) for the IOP measurements. IOP was measured invasively (SNMS) and non-invasively by pneumotonometry in separate animals.
By comparison, IOP was measured non-invasively by pneumotonometry (OBT) (Avila et al., supra, 2005). As previously described, the commercially available tip of the ocular blood tomography (OBT) pneumotonometer (Blood Flow Analyzer [BFA] probe tip; Paradigm Medical Industries Inc.) was fit to a custom-built mount. Air flow from a constant pressure source was passed through the mount to reach a diaphragm forming the end of the BFA tip. The flow of air displaces the diaphragm outward, permitting escape of the air through holes in the wall of the probe tip into the atmosphere. Pressure was monitored with a transducer connected through a T-connection to the base of the BFA tip. The probe assembly was advanced to the cornea with a three-axis micromanipulator. The probe tip was advanced sufficiently to make contact with the tear film, as was indicated by a shift in the baseline output reading. In a refined method, the tip was withdrawn until the […] was visually displaced from the tear film. The output was then adjusted to zero before advancing the tip again. Contact with the cornea depresses the diaphragm of the BFA tip, occluding access of the air flow to the escape holes and raising the pressure at the base of the tip.
This approach was simplified to expedite identification of the endpoint, and the probe was subsequently advanced in about 10 standardized steps of approximately […] at intervals of about 10 seconds to identify the inflection region (Wang et al., supra, 2006). […] The pneumotonometric estimates of IOP were previously found to agree with manometric measurements in cannulated preparations and with estimates obtained by the servo-null technique (Avila et al., supra, 2005). Having established the baseline value of IOP, the position along the axis of advance of the micromanipulator was noted, and the probe was retracted from contact with the cornea. Subsequent measurements of IOP at later time points were obtained by advancing the probe tip to the same position, with the placement of the mouse maintained stereotactically. The measurements were conducted at 10-min intervals to avoid potential artifacts associated with prolonged pressure on the cornea.
(§2) Ketamine HCl was purchased from Phoenix Pharmaceutical Inc. (St. Joseph, Mo.). Other drugs were obtained from Sigma Chemical (St. Louis, Mo.). Drugs were applied topically with an Eppendorf pipette. […] The final droplet solution contained the drugs at the stated concentrations together with <2% DMSO and 0.0005% benzalkonium chloride at an osmolality of 295-300 mOsm. DMSO was omitted, altogether, from droplets containing the hydrophilic compounds adenosine, carbachol and carboxyfluorescein.
(§3) Effects on invasively-measured IOP were measured 10 min after topical application because after this time, the continued presence of the micropipette can be associated with a downward drift of the IOP, even under control conditions. In contrast, smaller droplets ([…]) were applied to the eye more frequently (three times instead of once) with the non-invasive technique, in order to forestall drying of the eye associated with the airflow from the pneumotonometer. With the non-invasive protocol, the IOP was stable for 30 min under control conditions.
In Table 1, an endpoint of 10 minutes was used for the invasive measurements in light of the above-discussed downward drift of the IOP, even under control conditions. […]

Experiment [2] concerns HCE (human ciliary epithelial) cell line, NPE cells. Description: Cell volume in isosmotic solution (isosmotic shrinkage), Coulter Counter. The class given is cell-based. Here is the method: Cell Culture The HCE (human ciliary epithelial) cell line (Carre et al., supra, 1997) is an immortalized NPE cell line obtained from primary cultures of adult human epithelium. […] Eye Res. 57:3057-3063 (1993); Yantorno et al., Exp. Eye Res. 49:423-437 (1989)). […] Cells were passaged every 6-7 days and were studied 8-13 days after passage, after reaching confluence. An immortalized PE-cell line from a primary culture of bovine pigmented ciliary epithelium were also grown under matching conditions. Measurement of Cell Volume in Isosmotic Solution: The volume of PE and NPE cells was measured, since the movement of fluid underlies a change in PE and NPE cell volume, respectively. This is also thought to be the same as the movement of fluid which underlines the secretion of aqueous humor (FIG. 1). […] Parallel aliquots of cells were studied on the same day. One aliquot usually served as a control, and the others were exposed to different experimental conditions at the time of suspension. The same amount of solvent vehicle (dimethylformamide, DMSO or ethanol) was always added to the control and experimental aliquots. […] Cell volumes of isosmotic suspensions were measured with a Coulter Counter (model ZBI-Channelyzer II), using a 100 μm aperture (Civan et al., supra, 1994). As previously described (Wax et al., supra, 1993), the cell volume (vC) of the suspension was taken as the peak of the distribution function. Cell shrinkage was fit as a function of time (t) to a monoexpenential function: […]^0^)/τ] {1) where v∞ is the steady-state cell volume, v0 is the cell volume at the first point (t0) of the time course to be fit, and τ is the time constant of the shrinkage. For purposes of data reduction, the data were normalized to the first time point, taken to be 100% isotonic volume. Fits were obtained by nonlinear least-squares regression analysis, permitting both v∞ and τ to be variables. […] Med. Chem. 37:636-646 (1994; Jacobson et al., supra, 1995; Jacobson et al., FEBS Lett. 336:57-60 (1993)).

Experiment [3] deals with mouse IOP. Put plainly: Mouse IOP after topical application, invasive servo-null micropipette system (SNMS). Format: in vivo, Black Swiss mice. Here is the method: as §1
By the SNMS approach (Avila et al., supra, 2001), the exploring micropipette, of […] outer diameter, was filled with a highly conducting solution and advanced across the cornea into the anterior chamber. A refined technique by Wang et al., Invest. Opthalmol. Vis. Sci. (serial online) (Aug. 31, 2006) available at www.iovs.org/egi/letters/46/9/3274#422, enhanced stability and reduce the background noise of the records, permitting fabrication of micropipettes whose resistance is 0.1-0.3 MΩ, rather than the 0.25-0.4 MΩ used initially. The filling solution was reduced from 3M KCl to 2M NaCl, rather than 3 M KCl. The resistance of the filled micropipette was balanced in a bridge circuit, and the tip was then advanced across the cornea. Upon entering the anterior chamber of the eye, the IOP forces the much lower-conducting aqueous humor into the micropipette tip, displacing the original filling solution. The micropipette resistance was thereby increased, unbalancing the bridge circuit and triggering a bellows to provide a counter-pressure, restoring the position of the filling solution and returning the resistance to its initial value. Thus, the value of the counter-pressure equals the IOP. As in the past (Avila et al., supra, 2001), the stability of the records permitted continuous measurements for tens of minutes during the course of drug applications.
as §2, §3
In Table 1, an endpoint of 10 minutes was used for the invasive measurements in light of the above-discussed downward drift of the IOP, even under control conditions. Also the need for smaller, more frequent droplets are discussed above with regard to the non-invasive technique using the pneumotonometer. As above, with the non-invasive protocol, the IOP was stable for 30 minutes under control conditions.

The test system of a further experiment is pupil size. Description: Pupil diameter after topical carbachol with or without corneal impalement. The class given is in vivo, mouse. Here is the method: as §1
To measure pupil diameter, the pupil and an adjacent ruler having 1-mm graticules were imaged with a digital camera. Care was taken to avoid applying mechanical stress, and consequently to avoid displacing the micropipette tip from its position in the anterior chamber. Lengths were measured by IMAGE J (National Institutes of Health) and the pupil diameters were calibrated to the ruler.
Pupillary diameter was measured before and 10 min after topical addition of […] containing 40 mM ([…]) of the miotic carbachol to both eyes of the mouse. One eye was not punctured; the other eye was impaled with the SNMS micropipette. Either the right or left eye of each mouse was chosen randomly for impalement. At so low a topical concentration and in the absence of a micropipette, exposure to carbachol for 10 min had no significant effect on pupillary size. The baseline diameter was 1.80±0.11, and was insignificantly changed by carbachol application, increasing by 0.12±0.17 mm (n=6, P>0.4).

For experiment [4], the system named is mouse IOP. Description: Mouse IOP monitored with SNMS, protocols of Yang et al. 2005. Format: in vivo. Here is the method: Pharmacol. 65:1675-1684 (2003)), is effective both in blocking adenosine-triggered shrinkage of cultured human NPE cells and in lowering IOP of mice (Yang et al., supra, 2005). MRS-1292 was tested on the mouse for two reasons. Transgenic mice provide a convenient opportunity for studying the molecular physiology and pharmacology in the living animal ([…] al., supra, 2003). Second, measurement of IOP permitted us to assess the effects of MRS-1292 on the target parameter. […] Therefore, to directly assess the effect of MRS-1292 in vivo in the mouse, IOP was monitored before and after drug application. IOP was monitored with the Servo-Null-Micropipette System (SNMS). The test protocols are described in detail by Yang et al. supra, 2005, herein incorporated by reference. […] In comparison, addition of the same volume of saline at the same osmolality produced no significant change in IOP (-0.3±1.2 mmHg, n=6, p>0.8) 14 min later. […] To estimate an approximate range, “penetrance” was defined by Yang et al. as the ratio of the published Ki value at receptors in vitro to the minimally effective droplet concentration, for a number of adenosine agonists and antagonists. Thus, penetrance ranges from 1:100 to 1:1000 for purinergic drugs that have been tested in the mouse, and it is not very different from the drug penetrance of 1:100 for agents applied topically to rabbits and primates. This rule of thumb also applies to acylguanidine blockers and bumetanide, whose topical effects have also been studied in the mouse eye. Thus, the approximately 1:1000 penetrance that Yang et al. reported in the 2003 citation for MRS 1292 in the present experiments is consistent with past studies

For the next experiment, the system named is cultured human NPE cells. The note with it: cited from earlier work.
The next experiment has as its target human A2A receptors (Homo sapiens, UniProt P29274). The note with it: literature; read-out: Ki for the binding to human A2A receptors; cited from earlier work.

Entries after “also recorded” stand apart in the source; their conditions may differ.

Sequence of human A2A receptors (P29274 whole entry): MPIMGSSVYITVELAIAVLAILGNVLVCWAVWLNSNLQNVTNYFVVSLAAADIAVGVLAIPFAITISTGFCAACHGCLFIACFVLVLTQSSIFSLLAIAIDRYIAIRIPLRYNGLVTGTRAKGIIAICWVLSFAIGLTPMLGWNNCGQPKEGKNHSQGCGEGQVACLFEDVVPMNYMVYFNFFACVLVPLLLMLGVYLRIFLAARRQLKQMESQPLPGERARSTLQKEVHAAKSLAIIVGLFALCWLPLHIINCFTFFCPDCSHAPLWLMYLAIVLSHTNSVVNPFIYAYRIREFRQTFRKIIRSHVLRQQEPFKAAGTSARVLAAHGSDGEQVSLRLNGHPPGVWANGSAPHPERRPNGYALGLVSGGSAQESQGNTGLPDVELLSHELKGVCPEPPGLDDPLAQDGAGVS

Take `CCC(=O)O[C@@H]1[C@H](OC(=O)CC)[C@@H](C(=O)NC)O[C@H]1n1cnc2c(NCc3cccc(I)c3)nc(Cl)nc21` [MRS-3823]: the “Δ(IOP) Pneumotonometer” value in the experiment on mouse IOP [1] is on record as “+0.2 ± 0.8 mm Hg”.

For the compound `CNC(=O)[C@H]1O[C@@H](n2cnc3c(NCc4cccc(I)c4)nc(Cl)nc32)[C@H](O)[C@@H]1O` [Cl-IB-MECA], in experiment [2] (in the presence of gramicidin, concentration not given), the “shrinkage of HCE cells” value is on record as “produced shrinkage of HCE cells”. In the experiment on mouse IOP [3] (SNMS, after 10 min, adenosine 10 mM, Cl-IB-MECA 200 nM droplet), the “increase in IOP over baseline” value was determined as 10.0±2.9 mmHg. For the same compound, the “Δ(IOP) Servo-Null” value with mouse IOP [3] (topical droplet 200 nM (1% DMSO), endpoint 10 min) was “+10.0 ± 2.9 mm Hg”. The “effect on mouse IOP measured non-invasively (in words)” value in the experiment on mouse IOP [1] (pneumotonometry, topical, MRS-3833 at 200 nM) is given as “produced no significant increase in IOP”. Further, the “Δ(IOP) Pneumotonometer” value with mouse IOP [1] is on record as “+0.7 ± 1.4 mm Hg”.

`C[N+](C)(C)CCOC(N)=O` [carbachol]: the “effect on pupil size” value with pupil size (4 mM droplet, with or without corneal impalement (n=2)) is listed as “had no effect on pupil size”. Besides, in the experiment with pupil size (40 mM droplet, 10 min, cornea impaled with micropipette), the “reduction of the pupil diameter” value was 38%. The “contraction of the pupil diameter” value with pupil size (40 mM droplet, 10 min, cornea impaled, baseline 2.00±0.15 mm) amounted to 0.76±0.09 mm. In addition, the “change (increase) of pupil diameter” value in the experiment on pupil size (40 mM droplet, 10 min, eye not punctured, baseline 1.80±0.11) came out at 0.12±0.17 mm.

Turning to `O=C1NCCC12O[C@@H](n1cnc3c(NCc4cccc(I)c4)ncnc31)[C@H](O)[C@@H]2O` (stereo partly drawn) [MRS-1292], the “time of maximum reduction in IOP, mean” value with mouse IOP [4] (25 μM) amounted to 15 ± 1 min. Further, the “maximum reduction in IOP” value in the experiment with mouse IOP [4] (droplets containing 25 μM) is recorded as 4.4±0.8 mm Hg. For the same compound, the “time constant (τ) of the adenosine-triggered shrinkage in the presence of MRS-1292” value in the experiment on cultured human NPE cells (10 μM adenosine plus MRS-1292) was 11.7 ± 2.6 min. For the same compound, the “Δv∞ steady-state shrinkage” value with cultured human NPE cells (10 μM adenosine, 2 min pretreatment with MRS-1292, gramicidin, 60 min study) is 1.9±0.2%.

Turning to `CCOC(=O)c1c(CC)c(C(=O)SCC)c(CC)[n+](C)c1-c1ccccc1.[I-]` [MRS-1649, 2,4-diethyl-1-methyl-3-(ethylsulfanylcarbonyl)-5-ethyloxycarbonyl-6-phenylpyridium iodide], in the experiment with mouse IOP [3] (tested by the inventors, technique not given), the “effect on IOP in the mouse (in words)” value was “found to lower IOP in the mouse”.

In the case of `CCNC(=O)[C@H]1O[C@@H](n2cnc3c(N)nc(NCCc4ccc(CCC(=O)O)cc4)nc32)[C@H](O)[C@@H]1O` [CGS-21680], the “effect of agonist on isosmotic volume of NPE cells” value in experiment [2] (agonist 100 nM) is recorded as “exerted no effect; also recorded: no detectable effect”; in experiment [2] (agonist 3 μM), “triggered isosmotic shrinkage; also recorded: did trigger isosmotic shrinkage”.

“3-ethyl 5-benzyl-2-methyl-6-phenyl-4-styryl-1,4-(±)-dihydropyridine-3,5-dicarboxylate [MRS-1097]”: at human A2A receptors, the Ki (commonly the dissociation constant of the complex between target and ligand, obtained from inhibition or displacement) was 4.77 µM.

On to `OC[C@H]1O[C@@H](n2cnc3c(NC4CCCC4)ncnc32)[C@H](O)[C@@H]1O` [CPA, N^6-cyclopentyladenosine], for which the “effect of agonist on isosmotic volume of NPE cells” value is recorded as “no significant shrinkage” in experiment [2] (30 nM and 1 μM (data not shown, N=3)); “had little effect; also recorded: small slow effect of uncertain significance” in experiment [2] (agonist 100 nM); “none at all; also recorded: no significant shrinkage” in experiment [2] (agonist 3 μM).

The values above are taken from patent US20090258836A1, “EFFECTIVE DELIVERY OF CROSS-SPECIES A3 ADENOSINE-RECEPTOR ANTAGONISTS TO REDUCE INTRAOCULAR PRESSURE” (The Trustees of The University of Pennsylvania, priority 2006, published 2009).
